Source: paper PMC10582773, “A clathrin-related protein FaRRP1/SCD2 integrates ABA trafficking and signaling to regulate strawberry fruit ripening” (The Journal of Biological Chemistry, 2023)
Blank lines part the entries; values can stand above or below the compound they belong to.

Experiments:
[1] = target: FaABAR-His recombinant fusion protein (magnesium chelatase H subunit) (Fragaria x ananassa (strawberry)); assay: ITC; 200 uM FaRRP1 dropped into 20 uM FaABAR; ITC200 (MicroCal), 25 C; ITC buffer 20 mM Na2HPO4, 20 mM NaH2PO4, 300 mM NaCl, 20 mM MgCl2, pH 7.4; 20 injections
[2] = target: FaRRP1-His/MBP fusion protein (Fragaria × ananassa, UniProt K9LRD7); assay: ITC binding of ABA to FaRRP1
Description: (§1) The expression and purification of the recombinant proteins FaRRP1, FaPYL2, and FaABAR were done by a prokaryotic (E. coli) expression system. The cDNA encoding the FaRRP1, FaPYL2, and FaABAR was synthesized using the aforementioned method by PCR amplification using the primers listed in Table S1. The recombinant plasmids of pET-28a-FaPYL2-His, pMAL-C5X-FaRRP1-His/MBP, pGEX4T-1-FaRRP1-GST, pET-28a-FaABAR-His were constructed. After positive recombinants were identified by double-digesting and sequencing, the E. coli strain BL21 (DE3) cells with the recombinant plasmid were grown in 500 ml LB medium containing different antibiotics at 37 °C. On A600 at 0.6 to 0.7, 0.5 mM IPTG was added to inducibly express the fusion proteins overnight at 16 °C for 12 h. The cultures were harvested and suspended with 20 ml binding buffer (20 mM Na2HPO4, 20 mM NaH2PO4, 300 mM NaCl, 20 mM MgCl2, 10 mM imidazole, pH 7.4), then lysed by sonication in a Misonix Sonifier at 4 °C; finally, the supernatants were loaded onto BeaverBeads IDA- Ni^2+ (Beaver) columns and mixed gently by shaking at 4 °C for 60 min. […]
(§2) The purified protein was concentrated using an Amicon Ultra-4 centrifugal 3-kDa filter (Millipore) at 3000g for 20 min in a swing bucket rotor (Sigma). […] The binding reaction between fusion protein to ABA was detected by ITC. […]

[3] = target: FaPYL2-His fusion protein; assay: ITC binding of ABA to FaPYL2; design: species or system Fragaria × ananassa; conditions: 0.4 mM S-(+)-ABA titrated into 20 μM protein, pH 7.4, 25 °C, endothermic, saturation curve
Description: as §1, §2

[4] = tested on: clathrin-mediated vesicle transport genes; assay: RT-qPCR of clathrin-mediated vesicle transport genes in ABA-incubated fruit discs; type: cell-based, Fragaria × ananassa; conditions: 100 μM ABA, white-stage fruit discs, vs control
Procedure: In vitro treatments were performed on fruits in the white stage using 100 μM ABA, and ABA-free buffer incubation was used as the control. The incubation was done as described by Song et al. ([77]). After a 2-h incubation followed by washing with double-distilled water, the discs were frozen in liquid nitrogen and kept at −80 °C until use. Samples are collected once at 0 h, 1 h, and 2 h. The experiment was performed with three replicates.
Total RNA was isolated from the fruit using the aforementioned method. The first-strand cDNA was used as the template for RT-qPCR, which was performed using the Trans Start Top UreenqPCR Super Mix Kit (TransGen Biotech) on the Light Cycler 96 real-time PCR system, with cDNA under different treatments as the template and strawberry Actin as the internal reference gene. The reaction procedures were as follows: predenaturation at 94 °C for 30 s, followed by 40 cycles of denaturation at 94 °C for 5 s, annealing at 60 °C for 15 s, and extension at 72 °C for 10 s. The experiment was duplicated three times independently. The Actin of the standard sample and the cDNA of the sample to be tested were repeated three times. Relative expression values were calculated by the 2^−ΔΔCt method, and SPSS22.0 software (https://www.spss.com) was used to analyze the experimental data.

[5] = target: FaRRP1–FaPYL2 protein complexes; assay: ITC binding of ABA to FaRRP1–FaPYL2 complex; design: species or system Fragaria × ananassa; conditions: 0.4 mM S-(+)-ABA titrated into 20 μM complex, pH 7.4, 25 °C, endothermic
Procedure: (§3) Whether FaRRP1 affects the binding activity of FaPYL2 and FaABAR to ABA is unclear. For this, FaRRP1-His/MBP, FaPYL2-His, and FaABAR-His were purified and dialyzed into the same buffer (ITC Buffer) (20 mM Na2HPO4, 20 mM NaH2PO4, 300 mM NaCl, 20 mM MgCl2 pH 7.4). Then, the molar concentrations of FaRRP1-FaPYL2 and FaRRP1-FaABAR complexes were mixed into the same ratio and placed at 4 °C for 30 min. Finally, 1-fold protein peptide and 20-fold S- (+)-ABA were used for ITC assays (Fig. 5, D and H).
(§4) The purified protein was concentrated using an Amicon Ultra-4 centrifugal 3-kDa filter (Millipore) at 3000g for 20 min in a swing bucket rotor (Sigma). The protein was then desalted for buffer exchange using a HiTrap desalting column (GE Healthcare). The HiTrap desalting column was filled with ITC buffer (20 mM Na2HPO4, 20 mM NaH2PO4, 300 mM NaCl, 20 mM MgCl2, pH 7.4) to remove ethanol completely and equilibrate the column. The final concentration of the FaRRP1-His/MBP, FaPYL2-His, and FaABAR-His fusion protein was adjusted to 20 μM. The binding reaction between fusion protein to ABA was detected by ITC. To ensure the univariate of the experiment, an ITC buffer was used to prepare an ABA solution with 20 times protein concentration to ensure the matching of buffer environment between the two. The ITC analysis used 20-μM fusion protein and 400-μM ABA in an ITC200 calorimeter (MicroCal). […]

[6] = tested on: FaRRP1-mediated endocytosis in root cells; assay: Endocytosis experiment under ABA treatment (FM4-64 staining of root cells); type: cell-based, Arabidopsis; conditions: 0.1 μM ABA 48 h, 10-days-old seedlings, 5 μM FM4-64 10 min; FaRRP1-OE line compared with WT
Procedure: The 10-days-old FaRRP1 OE and WT Arabidopsis seedlings growing under the normal condition were collected and soaked into the equilibrium solution [1/2 MS salt (pH=5.70), 1% sugar (w/v)] for 30 min. Then, the seedlings were treated with 0.1 μM ABA. After 48 h later, these seedlings were stained with 5 μM FM4-64 (Invitrogen) dye for 10 min, washed with equilibrium solution for 3 times, and root cells were observed under a confocal laser scanning microscope (Zeiss LSM 710 META). The experiment was repeated three times.

[7] = target: T1, FaABAR-His fusion protein (Fragaria × ananassa, UniProt C6KF71); assay: ITC binding of ABA to FaABAR
T1 sequence (C6KF71 1-1381): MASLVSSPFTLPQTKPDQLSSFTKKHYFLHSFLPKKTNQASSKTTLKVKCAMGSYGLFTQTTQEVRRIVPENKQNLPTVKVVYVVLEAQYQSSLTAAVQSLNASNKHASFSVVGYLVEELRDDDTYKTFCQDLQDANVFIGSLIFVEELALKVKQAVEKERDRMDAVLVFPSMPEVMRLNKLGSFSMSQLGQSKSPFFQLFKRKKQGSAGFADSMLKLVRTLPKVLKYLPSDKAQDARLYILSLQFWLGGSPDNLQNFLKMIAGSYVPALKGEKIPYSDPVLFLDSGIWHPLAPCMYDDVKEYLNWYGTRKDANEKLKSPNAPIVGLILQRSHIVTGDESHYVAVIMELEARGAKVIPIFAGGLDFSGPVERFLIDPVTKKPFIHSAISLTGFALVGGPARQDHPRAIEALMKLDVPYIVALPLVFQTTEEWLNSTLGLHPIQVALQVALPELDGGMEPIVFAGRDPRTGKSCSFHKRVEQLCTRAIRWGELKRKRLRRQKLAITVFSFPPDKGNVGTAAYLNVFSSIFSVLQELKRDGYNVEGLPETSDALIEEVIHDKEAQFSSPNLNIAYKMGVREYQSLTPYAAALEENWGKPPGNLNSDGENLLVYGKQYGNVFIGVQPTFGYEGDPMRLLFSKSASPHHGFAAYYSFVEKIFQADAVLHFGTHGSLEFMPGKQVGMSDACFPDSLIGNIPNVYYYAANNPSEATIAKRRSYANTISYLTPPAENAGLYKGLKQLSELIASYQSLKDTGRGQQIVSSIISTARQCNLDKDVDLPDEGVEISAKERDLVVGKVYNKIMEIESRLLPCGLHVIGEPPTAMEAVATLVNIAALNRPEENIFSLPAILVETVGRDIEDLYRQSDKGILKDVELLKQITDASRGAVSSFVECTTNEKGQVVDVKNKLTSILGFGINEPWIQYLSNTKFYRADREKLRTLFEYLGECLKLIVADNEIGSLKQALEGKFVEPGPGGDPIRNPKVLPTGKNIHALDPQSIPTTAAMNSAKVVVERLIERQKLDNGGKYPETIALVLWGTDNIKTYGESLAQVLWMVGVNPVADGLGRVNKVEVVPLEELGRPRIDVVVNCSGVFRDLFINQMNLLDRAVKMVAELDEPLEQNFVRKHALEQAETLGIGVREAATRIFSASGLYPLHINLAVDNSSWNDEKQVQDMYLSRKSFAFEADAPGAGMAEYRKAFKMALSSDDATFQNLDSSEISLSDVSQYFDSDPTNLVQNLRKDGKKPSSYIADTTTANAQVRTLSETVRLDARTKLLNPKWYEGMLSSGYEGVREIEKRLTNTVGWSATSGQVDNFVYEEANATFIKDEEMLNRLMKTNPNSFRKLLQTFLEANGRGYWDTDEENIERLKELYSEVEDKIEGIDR
Description: as §1, §2

[8] = target: FaRRP1–FaABAR protein complexes (Fragaria x ananassa, UniProt C6KF71+K9LRD7); assay: ITC binding of ABA to FaRRP1–FaABAR complex; conditions: 0.4 mM S-(+)-ABA titrated into 20 μM complex, pH 7.4, 25 °C, exothermic
Procedure: as §3, §4

[9] = target: FaRRP1-His/MBP recombinant fusion protein (strawberry ripening-regulated protein 1) (Fragaria x ananassa (strawberry)); assay: ITC; 200 uM FaPYL2 dropped into 20 uM FaRRP1; ITC200 (MicroCal), 25 C; ITC buffer 20 mM Na2HPO4, 20 mM NaH2PO4, 300 mM NaCl, 20 mM MgCl2, pH 7.4; 20 injections
[10] = 2 h, decreased in contrast to 1 h treatment

Chain of FaRRP1-His/MBP fusion protein (K9LRD7 1-566): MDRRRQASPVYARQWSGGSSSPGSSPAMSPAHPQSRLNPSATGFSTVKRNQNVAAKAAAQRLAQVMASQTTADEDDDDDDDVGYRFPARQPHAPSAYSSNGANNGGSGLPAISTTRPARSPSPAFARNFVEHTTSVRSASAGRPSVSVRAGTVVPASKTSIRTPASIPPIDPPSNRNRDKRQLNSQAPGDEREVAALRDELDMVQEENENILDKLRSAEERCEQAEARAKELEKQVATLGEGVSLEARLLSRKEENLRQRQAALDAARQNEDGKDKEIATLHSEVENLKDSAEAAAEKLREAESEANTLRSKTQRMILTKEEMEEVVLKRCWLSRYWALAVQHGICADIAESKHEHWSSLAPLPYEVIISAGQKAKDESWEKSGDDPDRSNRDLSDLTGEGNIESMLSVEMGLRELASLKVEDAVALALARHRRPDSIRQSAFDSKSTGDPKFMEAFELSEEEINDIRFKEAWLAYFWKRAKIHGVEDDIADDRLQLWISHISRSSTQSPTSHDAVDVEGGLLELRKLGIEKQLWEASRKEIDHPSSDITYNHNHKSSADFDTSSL
Chain of FaRRP1–FaABAR protein complexes (K9LRD7 1-566, one chain of several): as the sequence (K9LRD7 1-566) above
Chain of FaRRP1-His/MBP recombinant fusion protein (strawberry ripening-regulated protein 1) (Fragaria x ananassa (strawberry)) (K9LRD7 entry or part of it): as the sequence (K9LRD7 1-566) above

Kd [1]: 168 µM
Compound: FaRRP1-His/MBP recombinant fusion protein (strawberry ripening-regulated protein 1) (natural protein)

Compound: CC1=CC(=O)CC(C)(C)[C@@]1(O)/C=C/C(C)=C\C(=O)O [ABA, Abscisic acid]
N (stoichiometry) ABA-FaRRP1 ([2]; ITC fit, 0.4 mM ABA into 20 μM FaRRP1): 0.41 Sites
Kd ([2]; ITC, 0.4 mM S-(+)-ABA titrated into 20 μM protein, pH 7.4, 25 °C, exothermic, saturation curve): 140 µM
Kd [3]: 102 µM
expression of FaAP1 ([4]; 1 h): significantly increased
expression of FaAP2 ([4]; 1 h): significantly increased
expression of FaCHC1 ([4]; 1 h): not changed
expression of FaCHC2 ([4]; 1 h): significantly increased
expression of FaCLC1 ([4]; 1 h): significantly increased
expression of FaCLC2 ([4]; 1 h): decreased considerably
expression of FaSCD1 ([4]; 1 h): significantly increased
expression of FaSCD2 ([4]; 1 h): significantly increased
expression of FaAP1 ([4]; 2 h): significantly decreased
expression of FaCHC1 ([4]; 2 h): quite upregulated
expression of FaCHC2 ([4]; 2 h): significantly decreased
expression of FaCLC2 ([4]; 2 h): quite upregulated
expression of FaSCD1 ([4]; 2 h): significantly decreased
expression of FaAP2 [4, 10]: significantly increased
expression of FaSCD2 [4, 10]: significantly increased
Kd [5]: 30.6 µM
degree of PM internalization (FM4-64–labeled fluorescent signal) [6]: promote the degree of PM internalization
N (stoichiometry) ABA-FaABAR ([7]; ITC fit, 0.4 mM ABA into 20 μM FaABAR): 8.60 Sites
Kd ([7]; ITC, 0.4 mM S-(+)-ABA titrated into 20 μM protein, pH 7.4, 25 °C, endothermic, could not reach saturation curve): 258 µM
Kd [8]: 87.7 µM

Kd [9]: 75.6 µM
Compound: FaPYL2-His recombinant fusion protein (natural protein)
